Measurements published in US4764602A, “Antibiotics, and their production” (Sumitomo Chemical Company, priority 1986, dated 1988).
≈ marks a conversion by molar mass, not a printed value.

Assays:
Solubility = format: physicochemical
[1] = tested on: Trichophyton mentagrophytes MTU 19001; experiment: MIC by agar dilution method; format: cell-based; settings: MTU19001, Sabouraud's agar medium
Excerpt: (§1) The minimum inhibitory concentrations (MIC) of PC-766B against various microorgnisms as measured by the agar dilution method are shown in Table 4.
(§2) Note: *^1 1: Modified MullerHinton agar medium; 2: Sabouraud's agar

[2] = tested on: Klebsiella pneumoniae ATCC 10031; experiment: MIC by agar dilution method; format: cell-based; settings: ATCC10031, Modified MullerHinton agar medium
Excerpt: as §1, §2

[3] = tested on: Streptococcus pyogenes Cook; experiment: MIC by agar dilution method; format: cell-based; settings: Modified MullerHinton agar medium
Excerpt: as §1, §2

[4] = tested on: Staphylococcus epidermidis IAM 1296; experiment: MIC by agar dilution method; format: cell-based; settings: IAM1296, Modified MullerHinton agar medium
Excerpt: as §1, §2

Serratia marcescens ×100 = experiment: MIC by agar dilution method; format: cell-based; settings: Modified MullerHinton agar medium
Excerpt: as §1, §2

[5] = tested on: Staphylococcus aureus 209P; experiment: MIC by agar dilution method; format: cell-based; settings: Modified MullerHinton agar medium
Excerpt: as §1, §2

[6] = tested on: Proteus mirabilis GN 2425; experiment: MIC by agar dilution method; format: cell-based; settings: GN2425, Modified MullerHinton agar medium
Excerpt: as §1, §2

[7] = tested on: Bacillus subtilis ATCC 6633; experiment: MIC by agar dilution method; format: cell-based; settings: ATCC6633, Modified MullerHinton agar medium
Excerpt: as §1, §2

[8] = tested on: Cryptococcus neoformans MTU 13001; experiment: MIC by agar dilution method; format: cell-based; settings: MTU13001, Sabouraud's agar medium
Excerpt: as §1, §2

[9] = tested on: Aspergillus fumigatus MTU 16001; experiment: MIC by agar dilution method; format: cell-based; settings: MTU16001, Sabouraud's agar medium
Excerpt: as §1, §2

Bacillus cereus IAM 1029 = experiment: MIC by agar dilution method; format: cell-based; settings: IAM1029, Modified MullerHinton agar medium
Excerpt: as §1, §2

[10] = tested on: Escherichia coli NIJH JC-2; experiment: MIC by agar dilution method; format: cell-based; settings: NIJHJC2, Modified MullerHinton agar medium
Excerpt: as §1, §2

[11] = tested on: Micrococcus luteus ATCC 9341; experiment: MIC by agar dilution method; format: cell-based; settings: ATCC9341, Modified MullerHinton agar medium
Excerpt: as §1, §2

Pseudomonas aeruginosa T = experiment: MIC by agar dilution method; format: cell-based; settings: Modified MullerHinton agar medium
Excerpt: as §1, §2

[12] = tested on: Candida albicans MTU 12001; experiment: MIC by agar dilution method; format: cell-based; settings: MTU12001, Sabouraud's agar medium
Excerpt: as §1, §2

With `CC=CC=CC1OC(O)(C(C)C(O)C(C)C2OC(=O)C(OC)=CC(C)=CC(C)C(O)C(C)CC(C)=CC=CC2OC)CC(OC2CC(O)C(O)C(C)O2)C1C` (centres unmarked) [PC-766B] the Solubility (Solubility; methanol, chloroform and ethyl acetate) was “soluble in methanol, chloroform and ethyl acetate”, the Solubility (Solubility; n-hexane and water) was “insoluble in n-hexane and water” and the MIC [1] was > 100 µg/mL. For the same molecule, the MIC [2] was > 200 µg/mL, the MIC [3] was 3.13 µg/mL (≈ 4.03 µM) and the MIC [4] was 6.25 µg/mL (≈ 8.04 µM). The MIC (Serratia marcescens ×100) was > 200 µg/mL, the MIC [5] was 12.5 µg/mL (≈ 16.1 µM) and the MIC [6] was > 200 µg/mL. For the same molecule, the MIC [7] was 6.25 µg/mL (≈ 8.04 µM), the MIC [8] was 12.5 µg/mL (≈ 16.1 µM) and the MIC [9] was > 100 µg/mL. The MIC (Bacillus cereus IAM 1029) was 3.13 µg/mL (≈ 4.03 µM), the MIC [10] was > 200 µg/mL and the MIC [11] was 1.56 µg/mL (≈ 2.01 µM). The MIC (Pseudomonas aeruginosa T) was > 200 µg/mL and the MIC [12] was > 100 µg/mL.
